From publication PMC6178282, “Comparative cell biological study of in vitro antitumor and antimetastatic activity on melanoma cells of GnRH-III-containing conjugates modified with short-chain fatty acids” (Beilstein Journal of Organic Chemistry, 2018)

Test system: A2058 melanoma cells
Assay: Morphometry analysis by HoloMonitor M4 holographic microscopy
Type: cell-based, human
Conditions: fold change during treatment normalized to control cells, average ± SD, 50 cells/group, 180 consecutive frames
Protocol: Holographic microscopic measurements were also performed to visualize the morphological changes induced by the conjugates and Dau. This novel technique provided several morphological parameters (e.g., surface area, optical thickness, eccentricity etc.) that allowed understanding of the results of impedance-based adhesion measurement. Holographic images were taken before and after the 3-hour treatment of A2058 cells with the compounds. The change in the morphological parameters shown in Table S1 in Supporting Information File 2 was calculated from a fold change during 3 h long treatment and this value was normalized to that of the control cells. The adhesion inducer effects of Dau and GnRH-III(Dau=Aoa) detected by the impedimetric assay were reflected in the morphometry analysis.
The experimental set up we used for the morphometry analysis can be also found in [6]. The HolomonitorTM M4 microscope (Phase Holographic Imaging AB, Lund, Sweden) was used for imaging and tracking the morphological changes of A2058 cells induced by the conjugates and Dau. This technique is dedicated to analyzing the morphology and movement of adherent cells by recording 3D, holographic phase contrast images and tracking them over a given time period. The principle behind this method is the detection of the phase shift of the probing laser light transmitting or reflecting through a cell sample and comparison to the reference light […]
A2058 cells were seeded (2.5 × 10^5 cells) in a petri dish (diameter: 35 mm) and allowed to adhere for 24 h. After automatic calibration of the background and microscope objective (20×), one field of each sample was focused on by the digital autofocus feature. The cells were then treated with the test compounds at the final concentrations of 10−7–10−5 mol/L, or with an equivalent volume of culture medium, and captured every 30 sec for 2 h.
For the evaluation, ca. 50 cells per time-lapse sequence were identified and selected by the minimum error histogram-based threshold algorithm of the HStudioTM M4 2.7.1 software (Phase Holographic Imaging AB, Lund, Sweden). The morphological changes were automatically analyzed over time by selecting and tracking individual cells.
For the morphometry analysis, different basic and complex morphological parameters were […]
The (i) area (surface area of the image occupied by a cell) and (ii) thickness (average spatial cell thickness) were grouped as basic metrics, while the more complex parameters relating to cell shape were: (iii) the eccentricity (how elongated a cell is comparing to a circle), (iv) the hull convexity (how different the 3D shape of a cell is compared to a perfect convex shape) and (v) the irregularity (how different the circumference of a cell is compared to the circumference of a perfect circle).
Table S1: Morphological changes of A2058 melanoma cells induced by the conjugates Compounds/ Area Thickness Eccentricity Hull convexity Irregularity concentrations [%] [%] [%] [%] [%]
[4Lys(Ac)] -GnRH-III(Dau=Aoa )
[4Lys(Bu)]-GnRH-III(Dau=Aoa)
Area (μm2) – surface area of the image that is occupied by the cell; Thickness (μm) – average thickness of the cell; Eccentricity – how elongated a cell comparing to a circle shape; Hull convexity – how different the 3D shape of a cell from the perfect convex shape; Irregularity – how different the circumference of a cell from the circumference of a perfect circle
Data represent averages and ±SD values calculated for 50 cells/group in 180 consecutive frames.
The presented data were calculated by HoloStudioTM M4 2.5 and analyzed by Origin Pro 2016. The levels of significance are shown as follows: *: p<0.05; **: p<0.01; ***: p<0.001

With `COc1cccc2c1C(=O)c1c(O)c3c(c(O)c1C2=O)C[C@@](O)(C(C)=O)C[C@@H]3O[C@H]1C[C@H](N)[C@H](O)[C@H](C)O1` [daunorubicin] the Area (10^-5 M) was 99.1 ± 4.1%, the Eccentricity (10^-5 M) was 104.4 ± 1.84% and the Hull convexity (10^-5 M) was 101.2 ± 0.29%. The Irregularity (10^-5 M) was 102.6 ± 2.54%, the Thickness (10^-5 M) was 104.5 ± 2.12% and the Eccentricity (10^-6 M) was 96.6 ± 1.83%. The Hull convexity (10^-6 M) was 100.1 ± 0.23%, the Thickness (10^-6 M) was 95.4 ± 1.87% and the Area (10^-6 M, listed as Dau) was 124.1%. For the same molecule, the Area (10^-7 M) was 94.5 ± 3.72%, the Eccentricity (10^-7 M) was 95.2 ± 2.25% and the Hull convexity (10^-7 M) was 103.4 ± 0.29%. It also gave an Irregularity (10^-7 M) of 94.5 ± 2.41% and a Thickness (10^-7 M) of 101.8 ± 1.95%.
